{"source": "paper PMC4728427", "about": "“Mechanism of allosteric activation of TMEM16A/ANO1 channels by a commonly used chloride channel blocker” (British Journal of Pharmacology, 2016)", "key": {"[1]": {"biological_target": "T1, Mouse TMEM16A (Mus musculus, UniProt Q8BHY3)", "T1 construct": "expressed in transfected cells; host or cells: HEK-293T", "T1 sequence (Q8BHY3 1-960)": "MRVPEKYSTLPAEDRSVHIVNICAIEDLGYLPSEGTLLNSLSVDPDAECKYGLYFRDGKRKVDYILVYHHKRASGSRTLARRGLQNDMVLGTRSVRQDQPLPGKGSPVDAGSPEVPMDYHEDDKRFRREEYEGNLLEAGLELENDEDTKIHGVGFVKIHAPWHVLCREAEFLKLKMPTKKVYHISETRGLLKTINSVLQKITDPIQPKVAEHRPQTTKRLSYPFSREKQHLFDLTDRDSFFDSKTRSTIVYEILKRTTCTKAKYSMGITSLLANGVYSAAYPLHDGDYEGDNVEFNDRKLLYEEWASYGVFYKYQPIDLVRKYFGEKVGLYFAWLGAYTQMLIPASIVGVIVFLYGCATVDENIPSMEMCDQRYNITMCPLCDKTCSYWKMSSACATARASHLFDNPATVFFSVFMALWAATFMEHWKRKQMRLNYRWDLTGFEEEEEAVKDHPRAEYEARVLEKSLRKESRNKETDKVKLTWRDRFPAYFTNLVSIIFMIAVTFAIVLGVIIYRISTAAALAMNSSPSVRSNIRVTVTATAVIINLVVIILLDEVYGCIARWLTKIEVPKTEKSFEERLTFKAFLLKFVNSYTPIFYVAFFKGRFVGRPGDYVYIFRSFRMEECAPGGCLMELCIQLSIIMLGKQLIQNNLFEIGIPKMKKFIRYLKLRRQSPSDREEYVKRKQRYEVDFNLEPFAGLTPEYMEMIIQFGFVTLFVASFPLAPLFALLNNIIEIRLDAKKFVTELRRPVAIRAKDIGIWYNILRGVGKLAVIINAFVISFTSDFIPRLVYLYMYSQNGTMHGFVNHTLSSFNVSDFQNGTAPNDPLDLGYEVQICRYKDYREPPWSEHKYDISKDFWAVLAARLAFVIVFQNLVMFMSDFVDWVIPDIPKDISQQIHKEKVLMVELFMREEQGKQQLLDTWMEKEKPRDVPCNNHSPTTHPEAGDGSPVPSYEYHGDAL", "assay": "Whole-cell TMEM16A current in the absence of [Ca2+]i", "type": "cell-based", "conditions": "3000 μM extracellular A9C", "experimental": "Current versus V m relationships were constructed by measuring currents in response to 1 s V m steps (test pulses) from −100 to +100 mV in 40 mV increments (unless stated otherwise) after a 1 s V m step to +70 mV (pre‐pulse). Pulses were elicited every 2 s from a holding V m of 0 mV. Steady‐state currents were measured at the end of the test pulses. As detailed in the Results, in the presence of 300 nM [Ca^2+]i and extracellular A9C, the test‐pulse currents reached a peak within the first ~50 ms of the test pulse. These peak currents were also measured and plotted against the V m of the test pulse. Current density was obtained by dividing the current amplitude for the cell capacitance.\nThe gating of TMEM16A channels is modulated by changes in [Ca^2+]i and V m. To study the effect of A9C on the intrinsic V m‐dependence of the channel, extracellular A9C (3000 μM) was applied during whole‐cell patch‐clamp in the absence of [Ca^2+]i (Figure 9). The stimulation protocol was similar to that used in Figure 1. However, because TMEM16A current in the absence of [Ca^2+]i are evident at V m greater than ~100 mV (Xiao et al., 2011), test pulses were elicited up to a value of +140 mV. Consistent with previous studies (Xiao et al., 2011), TMEM16A current in the absence of [Ca^2+]i appeared almost instantaneously in response to strong depolarizations (Figure 9). […]"}, "[2]": {"biological_target": "Xenopus laevis TMEM16A", "conditions": "+80 mV, ref Reyes et al. (2015); cited from earlier work"}}}
{"smiles": "O=C(O)c1c2ccccc2cc2ccccc12", "note": "[A9C, Anthracene‐9‐carboxylic acid]", "values": [{"measurement": "tail currents at negative Vm", "setting": "[1]", "value": "no large increase"}, {"measurement": "TMEM16A current density", "setting": "[1]; +140 mV, control 13.0 ± 4.0", "value": "7.3 ± 3.8", "unit": "pA∙pF^−1"}, {"measurement": "Ki", "setting": "[2]", "value": "~90", "unit": "µM"}]}
